# Assay results published in PubChem BioAssay (NCI).
#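 Dose response: 5 concentrations. Exposure: 48 h. Format: 96-well plates. Endpoint: linear interpolation; highest concentration if not reached. Abbreviation: GI50, concentration required for 50% inhibition of growth. TGI marks complete inhibition of growth.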 Where a SMILES comes first, the peptide text is derived from it. The star is where a group is joined. Boc = CC(C)(C)OC(=O)*
# How the values were obtained:
# Test in all cases: inhibition of tumour cell growth, NCI panel, 48 h
# K-562 leukemia = tested on: K-562 leukemia
# KM12 colon = tested on: KM12 colon
# OVCAR-8 ovarian = tested on: OVCAR-8 ovarian
# HL-60(TB) leukemia = tested on: HL-60(TB) leukemia
# LOX IMVI melanoma = tested on: LOX IMVI melanoma
# IGROV1 ovarian = tested on: IGROV1 ovarian
# HOP-92 NSCLC = tested on: HOP-92 NSCLC
# NCI-H522 lung = tested on: NCI-H522 lung
# SNB-75 CNS = tested on: SNB-75 CNS
# SF-539 CNS = tested on: SF-539 CNS
smiles,measurement,setting,value
CC(=O)O[C@H]1[C@H](OC(=O)CC(C)(O)CC(=O)O)C[C@]2(C)C3=C(CCC2C1(C)C)[C@]1(C)CC[C@H]([C@H]2CC[C@H](C(C)(C)O)OC2O)[C@@]1(C)[C@@H](O)C3 (stereo not given in full),TGI,K-562 leukemia,76.5 µM
same,TGI,KM12 colon,38.6 µM
same,TGI,OVCAR-8 ovarian,35.4 µM
same,TGI,HL-60(TB) leukemia,36.5 µM
same,TGI,LOX IMVI melanoma,35.9 µM
same,TGI,IGROV1 ovarian,30.8 µM
same,TGI,HOP-92 NSCLC,31.1 µM
Cc1ccc(S(=O)(=O)N2CCCSCC2)cc1,TGI,K-562 leukemia,> 100 µM
same,TGI,KM12 colon,> 100 µM
same,TGI,NCI-H522 lung,> 100 µM
same,TGI,OVCAR-8 ovarian,> 100 µM
same,TGI,LOX IMVI melanoma,> 100 µM
same,TGI,SNB-75 CNS,> 100 µM
same,TGI,HOP-92 NSCLC,> 100 µM
O=C1CSC(c2cccc([N+](=O)[O-])c2)N1c1ccc(-n2c(-c3ccccc3)nc3ccccc3c2=O)cc1 (stereo not given),TGI,K-562 leukemia,> 100 µM
same,TGI,KM12 colon,> 100 µM
same,TGI,NCI-H522 lung,> 100 µM
same,TGI,OVCAR-8 ovarian,> 100 µM
same,TGI,SF-539 CNS,> 100 µM
same,TGI,HL-60(TB) leukemia,> 100 µM
same,TGI,LOX IMVI melanoma,> 100 µM
same,TGI,IGROV1 ovarian,> 100 µM
same,TGI,HOP-92 NSCLC,> 100 µM
CO/N=C(\C)CCC#Cc1ccccc1C(=O)OC,TGI,K-562 leukemia,> 10 µM
same,TGI,KM12 colon,> 10 µM
same,TGI,OVCAR-8 ovarian,> 10 µM
same,TGI,SF-539 CNS,> 10 µM
same,TGI,HL-60(TB) leukemia,> 10 µM
same,TGI,LOX IMVI melanoma,> 10 µM
same,TGI,IGROV1 ovarian,> 10 µM
COC(=O)C(Cc1c[nH]c2ccccc12)NC(=O)C(Cc1c[nH]c2ccccc12)NC(=O)C(Cc1c[nH]c2ccccc12)NC(=O)C(Cc1c[nH]c2ccccc12)NC(=O)C(Cc1c[nH]c2ccccc12)NC(=O)C(Cc1c[nH]c2ccccc12)NC(=O)C(Cc1c[nH]c2ccccc12)NC(=O)C(Cc1c[nH]c2ccccc12)NC(=O)OC(C)(C)C (stereo not given) (Boc-WWWWWWWW-OMe; configuration not given here),TGI,K-562 leukemia,> 100 µM
same,TGI,NCI-H522 lung,60.3 µM
same,TGI,OVCAR-8 ovarian,> 100 µM
same,TGI,HL-60(TB) leukemia,53.5 µM
same,TGI,LOX IMVI melanoma,> 100 µM
same,TGI,SNB-75 CNS,> 100 µM
same,TGI,IGROV1 ovarian,> 100 µM
CC1=C(C)Cc2c(O)ccc(O)c2C1,TGI,K-562 leukemia,49.8 µM
same,TGI,KM12 colon,> 100 µM
same,TGI,OVCAR-8 ovarian,32.1 µM
same,TGI,SF-539 CNS,35.1 µM
same,TGI,HL-60(TB) leukemia,23.5 µM
same,TGI,LOX IMVI melanoma,46.7 µM
same,TGI,SNB-75 CNS,31.3 µM
same,TGI,HOP-92 NSCLC,36.4 µM
NC(=S)N/N=C\c1nccc2ccccc12,TGI,K-562 leukemia,> 50 µM
same,TGI,KM12 colon,> 100 µM
same,TGI,NCI-H522 lung,32.5 µM
same,TGI,OVCAR-8 ovarian,0.925 µM
same,TGI,SF-539 CNS,0.455 µM
same,TGI,HL-60(TB) leukemia,40.4 µM
same,TGI,LOX IMVI melanoma,11.8 µM
same,TGI,IGROV1 ovarian,17.4 µM
same,TGI,HOP-92 NSCLC,4.56 µM
COC(=O)C(CCSC)NC(=O)Cc1ccc(C(=O)c2ccccc2)cc1 (stereo not given),TGI,K-562 leukemia,> 100 µM
same,TGI,KM12 colon,> 100 µM
same,TGI,NCI-H522 lung,> 100 µM
same,TGI,OVCAR-8 ovarian,> 100 µM
same,TGI,HL-60(TB) leukemia,> 100 µM
same,TGI,LOX IMVI melanoma,> 100 µM
same,TGI,SNB-75 CNS,> 100 µM
same,TGI,IGROV1 ovarian,> 100 µM
same,TGI,HOP-92 NSCLC,> 100 µM
CCOC(=O)c1c(N2CCOCC2)[nH]c(=O)c(C(c2ccco2)c2c(O)c(C(=O)OCC)c(N3CCOCC3)[nH]c2=O)c1O,TGI,K-562 leukemia,> 100 µM
same,TGI,KM12 colon,> 100 µM
same,TGI,NCI-H522 lung,> 100 µM
same,TGI,OVCAR-8 ovarian,> 100 µM
same,TGI,SF-539 CNS,> 100 µM
same,TGI,LOX IMVI melanoma,> 100 µM
same,TGI,SNB-75 CNS,> 100 µM
same,TGI,HOP-92 NSCLC,> 100 µM
COc1ccc2c(c1)CCc1c-2n(CCN2CCCCC2)c2ccc(OC)cc12,TGI,K-562 leukemia,> 100 µM
same,TGI,NCI-H522 lung,> 100 µM
same,TGI,OVCAR-8 ovarian,> 100 µM
same,TGI,LOX IMVI melanoma,> 100 µM
same,TGI,SNB-75 CNS,> 100 µM
same,TGI,IGROV1 ovarian,> 100 µM
Cn1c2ccccc2c(=O)c2cccc(C(=O)NC(CCC(N)=O)C(=O)O)c21 (stereo not given),TGI,K-562 leukemia,> 100 µM
same,TGI,KM12 colon,> 100 µM
same,TGI,OVCAR-8 ovarian,> 100 µM
same,TGI,SF-539 CNS,> 100 µM
same,TGI,HL-60(TB) leukemia,0.678 µM
same,TGI,LOX IMVI melanoma,> 100 µM
same,TGI,SNB-75 CNS,> 100 µM
same,TGI,IGROV1 ovarian,> 100 µM
N#Cc1ccc(-n2c3ccccc3c3ccc4c(c32)C(=O)C=CC4=O)cc1,TGI,K-562 leukemia,> 100 µM
same,TGI,KM12 colon,26.5 µM
same,TGI,NCI-H522 lung,1.19 µM
same,TGI,OVCAR-8 ovarian,> 58.7 µM
same,TGI,SF-539 CNS,18.5 µM
same,TGI,HL-60(TB) leukemia,> 100 µM
same,TGI,LOX IMVI melanoma,> 25.4 µM
same,TGI,SNB-75 CNS,> 53.3 µM
same,TGI,IGROV1 ovarian,16.2 µM
O=C1C(c2c(O)[nH]c3ccc(Br)cc23)=Nc2ccccc21,TGI,K-562 leukemia,> 100 µM
same,TGI,KM12 colon,50.5 µM
same,TGI,NCI-H522 lung,39.7 µM
same,TGI,OVCAR-8 ovarian,21.7 µM
same,TGI,HL-60(TB) leukemia,> 100 µM
same,TGI,LOX IMVI melanoma,25.8 µM
same,TGI,SNB-75 CNS,28.4 µM
same,TGI,IGROV1 ovarian,13 µM
same,TGI,HOP-92 NSCLC,34.9 µM
COc1cc(/C=c2\sc3n(c2=O)C(c2ccc(Cl)cc2)C2=C(CCCC2C)N=3)cc(OC)c1OC (stereo not given),TGI,K-562 leukemia,> 100 µM
same,TGI,KM12 colon,> 100 µM
same,TGI,OVCAR-8 ovarian,> 100 µM
same,TGI,HL-60(TB) leukemia,> 100 µM
same,TGI,LOX IMVI melanoma,> 100 µM
same,TGI,SNB-75 CNS,> 100 µM
same,TGI,IGROV1 ovarian,> 100 µM
same,TGI,HOP-92 NSCLC,> 100 µM
Oc1ccc2c(c1)-c1c(c3ccccc3n1CCN1CCOCC1)CC2,TGI,K-562 leukemia,> 100 µM
same,TGI,KM12 colon,51.3 µM
same,TGI,OVCAR-8 ovarian,> 100 µM
same,TGI,SF-539 CNS,> 100 µM
same,TGI,HL-60(TB) leukemia,> 100 µM
same,TGI,LOX IMVI melanoma,> 100 µM
same,TGI,SNB-75 CNS,68.5 µM
same,TGI,IGROV1 ovarian,> 100 µM
CCOC(=O)c1ccc(NCC#CCN2CCCCC2)cc1,TGI,K-562 leukemia,> 100 µM
same,TGI,KM12 colon,> 100 µM
same,TGI,SF-539 CNS,> 100 µM
same,TGI,HL-60(TB) leukemia,> 100 µM
same,TGI,LOX IMVI melanoma,> 100 µM
same,TGI,IGROV1 ovarian,> 100 µM
same,TGI,HOP-92 NSCLC,> 100 µM
O=C(NNC(=S)NC1CCCCC1)c1csc(NC(=S)NC2CCCCC2)n1,TGI,KM12 colon,87.6 µM
same,TGI,NCI-H522 lung,28.2 µM
same,TGI,OVCAR-8 ovarian,15 µM
same,TGI,SF-539 CNS,15.6 µM
same,TGI,HL-60(TB) leukemia,> 100 µM
same,TGI,LOX IMVI melanoma,18.9 µM
same,TGI,IGROV1 ovarian,26.6 µM
O=c1/c(=C/c2ccc(-c3ccc(Cl)cc3Cl)o2)sc2n1[C@@H](c1ccc(Cl)cc1)C=C(c1cc(F)c(Cl)cc1Cl)N=2,TGI,K-562 leukemia,> 100 µM
same,TGI,KM12 colon,> 100 µM
same,TGI,NCI-H522 lung,> 100 µM
same,TGI,OVCAR-8 ovarian,> 100 µM
same,TGI,SF-539 CNS,> 100 µM
same,TGI,LOX IMVI melanoma,> 100 µM
same,TGI,SNB-75 CNS,> 100 µM
same,TGI,IGROV1 ovarian,> 100 µM
same,TGI,HOP-92 NSCLC,61.7 µM
BrC(c1cccc2ccccc12)c1cccc2ccccc12,TGI,K-562 leukemia,> 100 µM
same,TGI,KM12 colon,28.8 µM
same,TGI,NCI-H522 lung,32.3 µM
same,TGI,OVCAR-8 ovarian,35.1 µM
same,TGI,HL-60(TB) leukemia,51.4 µM
same,TGI,LOX IMVI melanoma,30.1 µM
same,TGI,SNB-75 CNS,29.1 µM
same,TGI,IGROV1 ovarian,31.8 µM
same,TGI,HOP-92 NSCLC,28.8 µM
COc1cc(Cc2nccc3cc(OC)c(OC)cc23)c(N=NN(C)C)cc1OC,TGI,K-562 leukemia,> 100 µM
same,TGI,KM12 colon,40.2 µM
same,TGI,OVCAR-8 ovarian,60 µM
same,TGI,SNB-75 CNS,> 100 µM
same,TGI,IGROV1 ovarian,39.2 µM
COc1ccc(-c2cc3[nH]nc(N)c3c(=O)o2)cc1,TGI,K-562 leukemia,> 100 µM
same,TGI,KM12 colon,> 100 µM
same,TGI,OVCAR-8 ovarian,> 100 µM
same,TGI,SF-539 CNS,> 100 µM
same,TGI,HL-60(TB) leukemia,> 100 µM
same,TGI,LOX IMVI melanoma,> 100 µM
same,TGI,SNB-75 CNS,> 100 µM
same,TGI,IGROV1 ovarian,> 100 µM
same,TGI,HOP-92 NSCLC,> 100 µM
Cc1cc(S(=O)(=O)Nc2nc3ccccc3c(=O)n2N)c(S)cc1Cl,TGI,K-562 leukemia,> 100 µM
same,TGI,KM12 colon,> 100 µM
same,GI50,NCI-H522 lung,19 µM
same,TGI,NCI-H522 lung,50.7 µM
same,TGI,OVCAR-8 ovarian,> 100 µM
same,TGI,SF-539 CNS,> 100 µM
same,TGI,HL-60(TB) leukemia,> 100 µM
same,TGI,LOX IMVI melanoma,> 100 µM
same,GI50,SNB-75 CNS,13.3 µM
same,TGI,SNB-75 CNS,92.7 µM
same,TGI,IGROV1 ovarian,> 100 µM
COc1ccccc1C(=O)c1c(NCc2ccccc2)c(=O)c1=O,TGI,K-562 leukemia,> 100 µM
same,TGI,KM12 colon,> 100 µM
same,TGI,NCI-H522 lung,31.8 µM
same,TGI,OVCAR-8 ovarian,> 100 µM
same,TGI,HL-60(TB) leukemia,> 100 µM
same,TGI,LOX IMVI melanoma,> 100 µM
same,TGI,SNB-75 CNS,> 100 µM
same,TGI,IGROV1 ovarian,95 µM
same,TGI,HOP-92 NSCLC,> 100 µM
